# Assay results published in US5610174A, “Use of α1A -selective adrenoceptor agonists for the treatment of urinary incontinence” (priority 1995, dated 1997).
# Biological target: T1, dog BN, male (α1-adrenoceptor) (Canis lupus, UniProt A0A8I3NK63)
# T1 sequence (A0A8I3NK63 1-466): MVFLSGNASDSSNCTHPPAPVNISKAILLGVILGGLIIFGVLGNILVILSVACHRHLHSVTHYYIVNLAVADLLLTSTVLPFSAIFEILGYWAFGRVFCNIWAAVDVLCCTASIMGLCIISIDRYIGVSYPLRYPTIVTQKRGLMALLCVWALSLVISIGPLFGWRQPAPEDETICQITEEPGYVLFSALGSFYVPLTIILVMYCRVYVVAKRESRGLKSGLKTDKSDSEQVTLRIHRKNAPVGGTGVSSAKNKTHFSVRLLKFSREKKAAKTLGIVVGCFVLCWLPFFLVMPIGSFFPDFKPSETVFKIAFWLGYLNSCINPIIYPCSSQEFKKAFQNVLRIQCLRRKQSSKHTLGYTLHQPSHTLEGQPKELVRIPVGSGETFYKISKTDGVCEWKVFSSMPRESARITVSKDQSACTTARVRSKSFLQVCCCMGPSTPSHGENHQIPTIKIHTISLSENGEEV
# Assay: Contractile study in isolated male dog bladder neck
# Details: versus phenylephrine-induced contraction
# Excerpt: In addition, similar studies were done using bladder neck tissue from female dogs. In order to identify the specific receptor subtype in each tissue, the pharmacological profile was compared to the profiles for these same drugs at the cloned human α1A, α1B, or α1C subtypes.
# Tissue samples from the proximal urethra of male humans and male and female rabbits, as well as tissue samples from both the proximal urethra and bladder neck of male and female dogs were cut into transverse strips (3×10 mm) and suspended under 0.5 g tension in Krebs' physiological buffer at 37° C. To determine agonist potency (pEC50 )and antagonist affinity constants (pKB), concentration-effect curves to the non-selective agonist phenylepherine were constructed in the absence and in the presence of increasing concentrations of the antagonist. Up to four sequential curves were constructed in each tissue. Antagonists were allowed to equilibrate for 1h before each concentration-effect curve, and the drugs were completely washed out in between successive curves. In each experiment, one tissue served as a "time control", in which no antagonist was added so that changes in tissue sensitivity could be assessed as a function of time. […] In instances in which a single concentration of antagonist was used, pKB values were determined by the equation: […], where CR is defined as the ratio of the agonist EC50 in the presence of the antagonist to that in the absence of the antagonist.
row,SMILES,pKB Dog BN Male
1,COc1ccccc1N1CCN(CCCNc2c(C)c(=O)n(C)c(=O)n2C)CC1 [Compound 5-MU],8.7
2,"COc1cc2c(cc1OC)CN(c1cc(N)c3cc(OC)c(OC)cc3n1)CC2 [Abanoquil, 2-(6,7-Dimethoxy-3,4-dihydro-1H-isoquinolin-2-yl)-6,7-dimethoxyquinolin-4-ylamine hemifumarate hydrate]",8.6
